Laboratory results taken from patent US11096929B2 (Ovid Therapeutics Inc., priority 2015, dated 2021).
Entries after “also recorded” stand apart in the source; their conditions may differ.

Experiments:
[1] = system: healthy, male and female subjects; experiment: Driving performance (real driving on the road) after evening and middle of the night dosing; type: in vivo, human; conditions: for effect on driving / effect on memory test, body sway, DSST or critical tracking: gaboxadol 15 mg; for effect on driving: driving test at 9 am; for effect on memory test, body sway, DSST or critical tracking: cognitive and psychomotor test battery; for tolerability / most frequent adverse events: 15 mg
Source text: The study participants included healthy, male and female subjects between 21 and 45 years of age, with a valid drivers license for at least 3 years.
Following a cognitive and psychomotor test battery, the driving test started at 9 am and lasted for one hour.

[2] = system: healthy adults subjected to a 5-hour sleep restriction; experiment: Daytime performance after sleep restriction (MSLT, SWS, KSS, neurobehavioral battery); type: in vivo, human
Protocol: The study included a 2-night single-blind placebo run-in period, a 4-night double-blind treatment period during which sleep was restricted to 5 hours and a 2-night single-blind placebo run-out period. The study included healthy male and female volunteers 18 to <55 years of age.
2-night run-in period: All patients received placebo ?
2-night run-out period: All patients received placebo
The primary endpoints included observations based on the Multiple Sleep Latency Test (MSLT) and Slow Wave Sleep (SWS) assessment.

[3] = system: subjects with Angelman syndrome; experiment: Clinical Global Impressions (CGI-S, CGI-I) in 12-week placebo-controlled Angelman syndrome trial; type: in vivo, human; conditions: for percentage very much improved on CGI-I: QD group; for responders (one point or greater improvement in the CGI-I scale): once daily dose
Source text: CGI-S scale assessed all sub-domains of Angelman syndrome (gross and fine motor ability, sleep, and adaptive behavior) plus globally by the investigator. […] The Clinical Global Impressions-Improvement (CGI-I) scale was used to assess all sub-domains of Angelman syndrome (gross and fine motor ability, sleep, and adaptive behavior) plus globally by the investigator and caregiver. CGI-I is a 7-point scale in which the investigator rates the improvement or worsening of symptoms compared to baseline.

[4] = system: subjects with Angelman syndrome; experiment: Sleep diary in 12-week placebo-controlled Angelman syndrome trial; type: in vivo, human; conditions: for 6-week LS Mean sleep time (total sleep time at night) / 12-week LS Mean sleep time (total sleep time at night): sleep diary
Protocol: This multicenter, randomized, parallel (3-arm), double-blind, placebo-controlled trial enrolled 88 patients including adults (n=66) and adolescents (n=22) aged 13 to 49 years of age, diagnosed with Angelman syndrome. […] The dosing schedules that were assessed against placebo were once daily (QD): An evening dose titrated to the target dose of 15 mg unless not tolerated; and twice daily (BID): Evening and morning doses titrated to the target doses of 15 mg evening dose and 10 mg morning dose unless not tolerated.
The observed and change from baseline in total hours of sleep time at night (assessed from subject Sleep Diary) is provided in Table III.

[5] = system: subjects with Angelman syndrome; experiment: Adverse events in 12-week placebo-controlled Angelman syndrome trial; type: in vivo, human
[6] = system: healthy elderly male and female subjects; conditions: in vivo
insomnia = conditions: three-month efficacy study; cited from earlier work
[7] = system: Purkinje cells in cerebellar brain slices; conditions: low doses; cited from earlier work
Ube3a-deficient mice = conditions: low doses; Ube3a-deficient mice in vivo; cited from earlier work
[8] = system: patients with a history of drug abuse; conditions: cited from earlier work
[9] = Plasma concentration profiles, dose proportionality and absolute bioavailability of gaboxadol after single oral doses and 10 mg IV; conditions: geometric mean, N = 10
[10] = middle-of-the-night (4 am) administration, zolpidem 10 mg
[11] = BID dosing (10 mg morning, 15 mg evening), N = 29

## Cc1ccc(-c2nc3ccc(C)cn3c2CC(=O)N(C)C)cc1 [zolpidem]
[1]; [10]
  effect on driving: numerically greater effect

## CN1CCN(C(=O)OC2c3nccnc3C(=O)N2c2ccc(Cl)cn2)CC1 (stereo not drawn) [zopiclone]
[1]; zopiclone 7.5 mg
  effect on memory test, body sway, DSST or critical tracking: had effect on several of these tests
[1]; evening dose, zopiclone 7.5 mg
  effect on driving: numerically greater effect

## Oc1noc2c1CCNC2 [gaboxadol, 4,5,6,7-tetrahydroisoxazolo [5,4-c]pyridine-3-ol]
[1]; zopiclone 7.5 mg
  effect on memory test, body sway, DSST or critical tracking: no effect
[1]; evening dose
  tolerability: well tolerated
[1]; evening treatment
  most frequent adverse events: headache and somnolence
[1]; gaboxadol 15 mg evening dose vs 0.05% blood alcohol concentration
  effect on driving compared with alcohol: less than the effect observed at a 0.05% blood alcohol concentration
[1]; [10]
  effect on driving: clinically relevant impairing effect
[1]; middle-of-the-night dose
  tolerability: well tolerated
[1]; middle-of-the-night treatment
  most frequent adverse events: dizziness, nausea and somnolence
[2]; 15 mg vs placebo
  biophysiological measures of stress (heart rate variability, cortisol levels, catecholamine levels, body temperature) vs placebo: no differences
  daytime performance, effect sizes for the neurocognitive battery: no strong evidence that gaboxadol improves daytime performance
[2]; 15 mg, Sleep Restriction period
  subjective daytime sleepiness vs placebo: trend towards less subjective daytime sleepiness
[2]; 15 mg, Sleep Restriction period, p<0.001, 1 sided
  amount of slow wave sleep (SWS) vs placebo: increases the amount of slow wave sleep; also recorded: significantly more SWS
[2]; 15 mg, Sleep Restriction period, p=0.047, 1 sided
  daytime sleepiness (sleep propensity by MSLT) vs placebo: protective effect on reducing daytime sleepiness; also recorded: significantly less daytime sleepiness
[2]; 15 mg, last two Sleep Restriction days
  MSLT longer than placebo, average: 2.01 min
[2]; 15 mg, last two Sleep Restriction days, p=0.058, 1 sided, LDA model
  Karolinska Sleepiness Score (KSS) less than placebo, average: 0.68
[2]; 15 mg, last two Sleep Restriction nights
  SWS longer than placebo, average: 20.53 min
[3]; [11]
  CGI-I 6-week LS Mean: 3.54 (0.16)
  CGI-I 12-week LS Mean: 3.58 (0.16)
[3]; BID dosing minus placebo
  CGI-I 6-week LS Mean difference: −0.06 (0.21)
  CGI-I 12-week LS Mean difference: −0.21 (0.22)
[3]; Combined QD and BID, N = 58
  CGI-I 6-week LS Mean: 3.45 (0.12)
  CGI-I 12-week LS Mean: 3.29 (0.12)
[3]; Combined minus placebo
  CGI-I 6-week LS Mean difference: −0.15 (0.18)
  CGI-I 12-week LS Mean difference: −0.49 (0.19)
[3]; QD dosing (15 mg evening), N = 29, 7-point scale, clinician assessed
  CGI-I 6-week LS Mean: 3.54 (0.16)
[3]; QD dosing minus placebo
  CGI-I 6-week LS Mean difference: −0.24 (0.21)
  CGI-I 12-week LS Mean difference: −0.78 (0.22)
[3]; 18-24 year old, placebo 9%
  percentage very much improved on CGI-I: 27%
[3]; oldest cohort (25-49), placebo 11%
  percentage very much improved on CGI-I: 20%
[3]; youngest cohort (13-17), placebo 0%
  percentage very much improved on CGI-I: 33%
[3]; QD, placebo 3.1 to 3.0
  CGI-S Hyperactivity, change: 3.5 to 2.9
[3]; QD, placebo 3.3 to 3.6
  CGI-S Stereotypic behavior, change: 3.7 to 3.1
[3]; once daily dose cohort, all ages, placebo 26%
  responders (one point or greater improvement in the CGI-I scale) in overall symptoms: 70%
[3]; 13-17 year old, placebo 29%
  responders (one point or greater improvement in the CGI-I scale): 83%
[3]; 18-24 year old, placebo 27%
  responders (one point or greater improvement in the CGI-I scale): 73%
[3]; 25-49 year old, placebo 22%
  responders (one point or greater improvement in the CGI-I scale): 60%
[4]; BID dosing
  6-week LS Mean difference, sleep time: 0.30 (1.1) hours
  12-week LS Mean difference, sleep time: 0.18 (0.97) hours
[4]; BID dosing, N = 29
  6-week LS Mean sleep time (total sleep time at night): 8.95 (1.1) hours
  12-week LS Mean sleep time (total sleep time at night): 8.84 (1.1) hours
[4]; Combined
  6-week LS Mean difference, sleep time: 0.22 (0.94) hours
  12-week LS Mean difference, sleep time: 0.07 (1.0) hours
[4]; Combined, N = 58
  6-week LS Mean sleep time (total sleep time at night): 8.93 (1.3) hours
  12-week LS Mean sleep time (total sleep time at night): 8.80 (1.1) hours
[4]; QD dosing
  6-week LS Mean difference, sleep time: 0.14 (0.81) hours
  12-week LS Mean difference, sleep time: −0.04 (1.1) hours
[4]; QD dosing, N = 29
  6-week LS Mean sleep time (total sleep time at night): 8.91 (1.5) hours
  12-week LS Mean sleep time (total sleep time at night): 8.76 (1.2) hours
[5]; BID dosing, N = 29
  subjects with Abdominal Pain upper, number (%): 0
  subjects with At least 1 Adverse Event, number (%): 19 (66%)
  subjects with Diarrhea, number (%): 1 (3.4%)
  subjects with Gastrointestinal disorders, number (%): 4 (13.8%)
  subjects with Nausea, number (%): 2 (6.9%)
  subjects with Retching, number (%): 1 (3.4%)
  subjects with Vomiting, number (%): 1 (3.4%)
[5]; Combined, N = 58
  subjects with Abdominal Pain upper, number (%): 0
  subjects with At least 1 Adverse Event, number (%): 37 (64%)
  subjects with Diarrhea, number (%): 1 (1.7%)
  subjects with Gastrointestinal disorders, number (%): 4 (6.9%)
  subjects with Nausea, number (%): 2 (3.4%)
  subjects with Retching, number (%): 1 (1.7%)
  subjects with Vomiting, number (%): 1 (1.7%)
[5]; QD dosing, N = 29
  subjects with Abdominal Pain upper, number (%): 0
  subjects with At least 1 Adverse Event, number (%): 18 (62%)
  subjects with Diarrhea, number (%): 0
  subjects with Nausea, number (%): 0
  subjects with Retching, number (%): 0
  subjects with Vomiting, number (%): 0
[5]; QD dosing, N = 29, placebo 6 of 29
  subjects with Gastrointestinal disorders, number (%): 0
[6]
  residual effect on primary endpoints Choice Reaction Time and Critical Flicker Fusion: did not show residual effect
  residual effects on other measurements (MSLT, DSST, Tracking, Memory tests, Body Sway, Leeds Sleep Evaluation Questionnaire): did not show any signs of residual effects
insomnia
  effects in sleep onset and sleep maintenance: failed to show significant effects
[7]
  abnormal firing properties of a population of Purkinje cells: improve the abnormal firing properties
Ube3a-deficient mice
  cerebellar ataxia: reduces cerebellar ataxia
[8]
  psychiatric adverse events: steep increase in psychiatric adverse events
[9]; 2.5 mg single oral dose
  Fe: 43%
[9]; 5 mg single oral dose
  Fe: 45%
[9]; 10 mg I.V.
  Fe: 53%
[9]; 10 mg Oral
  Fe: 53%
[9]; 15 mg single oral dose
  Fe: 50%
[9]; 20 mg single oral dose
  Fe: 53%

## CCN(CC)CCN1C(=O)CN=C(c2ccccc2F)c2cc(Cl)ccc21 [Flurazepam]
[6]
  residual effect on primary endpoints Choice Reaction Time and Critical Flicker Fusion: showed significant effect
